Source: the supplement of paper PMC8882468

Legend:
Test in all cases: CTG-3D luminescence at 96 h relative to day-0 seeding control (ratio to day 0); higher = more growth / less cytotoxicity; PDxO 3D drug screen (set 2), 96 h, CTG-3D normalised to day-0 seeding control.
HCI-002 = tested on: HCI-002 (organoid from a triple-negative breast cancer xenograft)
HCI-015 = tested on: HCI-015 (organoid from a triple-negative breast cancer xenograft)
HCI-003.E2 = tested on: HCI-003.E2 (organoid from an ER-positive breast cancer xenograft)
HCI-027 = tested on: HCI-027 (organoid from a triple-negative breast cancer xenograft)
HCI-011.E2 = tested on: HCI-011.E2 (organoid from an ER-positive breast cancer xenograft)
HCI-012 = tested on: HCI-012 (organoid from a breast cancer xenograft)

CO[C@H]1C[C@@H]2CC[C@@H](C)[C@@](O)(O2)C(=O)C(=O)N2CCCC[C@H]2C(=O)O[C@H]([C@H](C)C[C@@H]2CC[C@@H](OCCO)[C@H](OC)C2)CC(=O)[C@H](C)/C=C(\C)[C@@H](O)[C@@H](OC)C(=O)[C@H](C)C[C@H](C)/C=C/C=C/C=C/1C [everolimus]
CTG-3D luminescence at 96 h
Conditions | 12.5 pM | 0.00025 µM | 0.005 µM | 0.1 µM | 1 µM | 10 µM | 100 µM | 625 fM
HCI-002, days in culture: 127 | 1.87 | 2.27 | 2.16 | 2.43 | 2.17 | 2.2 | -0.00603 | 2.25
HCI-002, days in culture: 155 | 3.94 | 3.58 | 4.06 | 4.09 | 2.96 | 2.78 | -0.00382 | 3.53
HCI-002, days in culture: 168 | 3.61 | 3.15 | 3.32 | 2.37 | 2.67 | 2.73 | -0.000729 | 3.88
HCI-011.E2, days in culture: 74 | 2.42 | 2.16 | 1.14 | 0.719 | 0.223 | 0.141 | -0.0134 | 2.48
HCI-012, days in culture: 214 | 2.76 | 1.49 | 1.21 | 1.84 | 1.41 | 1.69 | -0.000454 | 2.25
HCI-012, days in culture: 243 | 1.34 | 2.16 | 1.46 | 1.87 | 1.38 | 2.11 | -0.000228 | 1.9
HCI-012, days in culture: 256 | 2.03 | 1.8 | 1.71 | 2.19 | 1.42 | 1.38 | -0.00358 | 1.92
HCI-012, days in culture: 284 | 1.39 | 1.69 | 1.18 | 1.72 | 0.508 | 0.327 | -0.00211 | 2.6
HCI-015, days in culture: 333 | 1.5 | 1.05 | 0.891 | 0.744 | 0.932 | 0.782 | 0.00101 | 1.51
HCI-015, days in culture: 355 | 2.02 | 1.85 | 1.47 | 1.79 | 0.526 | 0.358 | -0.00285 | 1.7
HCI-015, days in culture: 369 | 1.97 | 1.19 | 1.91 | 1.52 | 1.84 | 1.12 | -0.00186 | 1.61
HCI-027, days in culture: 145 | 1.16 | 1.53 | 1.5 | 1.39 | 1.19 | 0.742 | -0.00159 | 1.87
HCI-027, days in culture: 158 | 1.27 | 1.84 | 2.74 | 2.29 | 2.53 | 0.866 | -0.00155 | 5.49
HCI-027, days in culture: 164 | 2.66 | 1.52 | 1.32 | 1.43 | 0.817 | 0.404 | 0.000466 | 2.04
HCI-027, days in culture: 176 | 2.43 | 2.12 | 1.35 | 1.31 | 1.44 | 0.309 | 0.000718 | 2.75
HCI-027, days in culture: 186 | 1.24 | 1.55 | 2.18 | 1.05 | 0.291 | 0.288 | 0.00707 | 3.1

CTG-3D luminescence at 96 h
Conditions | 12.5 pM | 0.00025 µM | 0.005 µM | 0.1 µM | 1 µM | 10 µM | 100 µM | 625 fM
HCI-003.E2 | 1.22 | 1.04 | 0.796 | 0.297 | 0.0538 | 0.03 | 0.000105 | 1.67
HCI-011.E2 | 0.746 | 0.907 | 0.684 | 0.675 | 0.247 | 0.327 | -4.7e-05 | 1.14

COc1cccc2c1C(=O)c1c(O)c3c(c(O)c1C2=O)C[C@@](O)(C(=O)CO)C[C@@H]3O[C@H]1C[C@H](N)[C@@H](O)[C@H](C)O1 [epirubicin]
CTG-3D luminescence at 96 h
Conditions | 12.5 pM | 0.00025 µM | 0.005 µM | 0.1 µM | 1 µM | 10 µM | 100 µM | 625 fM
HCI-002, days in culture: 127 | 2.39 | 2.93 | 2.65 | 2.23 | 0.362 | 0.034 | -0.0164 | 3.16
HCI-002, days in culture: 155 | 5.42 | 5.17 | 4.75 | 2.9 | 0.251 | 0.0733 | -0.011 | 4.45
HCI-002, days in culture: 168 | 3.2 | 3.41 | 3.79 | 1.24 | 0.0925 | 0.0935 | -0.00758 | 3.54
HCI-011.E2, days in culture: 74 | 2.38 | 2.27 | 2.26 | 2.8 | 0.677 | 0.0499 | -0.0143 | 2.23
HCI-012, days in culture: 214 | 2.15 | 2.5 | 1.28 | 0.214 | 0.0452 | 0.0186 | -0.0053 | 5.03
HCI-012, days in culture: 243 | 1.9 | 2.59 | 1.74 | 0.228 | 0.0532 | 0.0739 | -0.006 | 2.23
HCI-012, days in culture: 256 | 1.75 | 2.22 | 1.73 | 0.43 | 0.059 | 0.0309 | -0.0077 | 2.4
HCI-012, days in culture: 284 | 1.9 | 2.3 | 1.39 | 0.413 | 0.0294 | 0.0662 | -0.00241 | 3.07
HCI-015, days in culture: 333 | 2.58 | 1.36 | 1.49 | 0.405 | 0.191 | 0.0651 | 0.000859 | 1.94
HCI-015, days in culture: 355 | 2.99 | 2 | 0.533 | 0.761 | 0.192 | 0.0805 | 0.00144 | 1.85
HCI-015, days in culture: 369 | 2 | 1.58 | 2.14 | 0.514 | 0.143 | 0.117 | 0.000973 | 2.07
HCI-027, days in culture: 145 | 1.6 | 2.63 | 1.78 | 0.146 | 0.087 | 0.0692 | -0.00274 | 1.49
HCI-027, days in culture: 158 | 3.01 | 2.81 | 2.46 | 0.544 | 0.0846 | 0.202 | -0.00223 | 4.2
HCI-027, days in culture: 164 | 2.5 | 1.5 | 1.53 | 0.169 | 0.142 | 0.104 | -0.00102 | 3.34
HCI-027, days in culture: 176 | 3.02 | 2.26 | 1.43 | 0.676 | 0.0317 | 0.0395 | -0.000121 | 2.01
HCI-027, days in culture: 186 | 1.68 | 0.902 | 1.46 | 0.866 | 0.0439 | 0.0934 | -0.00168 | 2.13

CTG-3D luminescence at 96 h
Conditions | 12.5 pM | 0.00025 µM | 0.005 µM | 0.1 µM | 1 µM | 10 µM | 100 µM | 625 fM
HCI-003.E2 | 2.55 | 2.48 | 2.34 | 2.23 | 0.712 | 0.0173 | 0.000274 | 3.06
HCI-011.E2 | 1.49 | 1.68 | 1.53 | 1.6 | 0.861 | 0.0857 | -0.000843 | 1.72
